Laboratory results published in US12138256B2, “Treatment of cardiopulmonary disorders” (Bayer Aktiengesellschaft, priority 2021, dated 2024).

Test system: sGC (cGMP)
Test: Phase I, healthy male subjects, 7 days once daily inhalation: cGMP in blood samples (C-4.1)
Format: in vivo, human
Settings: for time of cGMP peak after administration: first inhalation; for mean peak cGMP: after repeated dosing for 7 days; for peak mean±SD cGMP: first profile day
Protocol: Healthy White male subjects, aged 18 to 45 years and with a body mass index (BMI) above/equal 18.5 and below/equal 29.9 kg/m2 were treated in a clinical pharmacological phase I study on seven days with inhaled once daily doses of 480 μg or 1000 μg or 2000 μg (2 capsules of 1000 μg) (nominal dose) of dry powder formulations of example 2 or Placebo. The subjects inhaled the drug powder from capsules (see under D-1, e.g. tables 22 and 23) inserted into a handheld inhalation device by one deep inhalative breath. The dry powder formulation of the drug is dispersed into the airstream and fine particles are transported into the deep parts of the lung where it is intended to cause a vasodilation of the blood vessels in PH patients for a substantial reduction of increased blood pressure in the central pulmonary blood vessels in PAH patients or other subtypes of PH. This effect cannot be shown in subjects with healthy lungs. In addition inhaled drug causes a dilation of the bronchial airways and thus also improves disease states of lung diseases in PH patients with pathological bronchoconstriction. This effect was measured via bodyplethysmography as reduction of Specific Airway Resistance in healthy subjects. After the deep inhalative breath the subjects hold breath for 2 seconds, so that the dry powder drug condenses from the airstream onto the surface of the deeper lung areas where it is deposited close to its site of intended pharmacological action. The drug dissolutes over the day and equilibrates the lung via lining fluid.
Drug activity in healthy men was controlled in the healthy subjects by analysing blood samples for cGMP, the immediate product of sGC pharmacological activation prior after the first and after the last drug inhalation of the 7 days treatment in comparison to measurements on the pretreatment day for all doses.
This prolonged activity in comparison to systemic drug concentration is caused by the mode of administration as inhaled dry powder, that deposits drug in the deeper part of the lung leading to an active drug concentration over 24 h after a once daily inhalation.
At 10 days after the first treatment, mean cGMP concentrations had returned close to the concentration observed at the pre-dosing day.

Structure (SMILES): O=C(O)c1ccc(CCN(CCc2ccccc2OCc2ccc(-c3ccc(C(F)(F)F)cc3)cc2Cl)[C@H]2CCCc3nc(C(=O)O)ccc32)cc1 [example 2, (5S)-{[2-(4-Carboxyphenyl)ethyl][2-(2-{[3-chloro-4′-(trifluoromethyl)biphenyl-4-yl]methoxy}phenyl)-ethyl]amino}-5,6,7,8-tetrahydroquinoline-2-carboxylic acid]
- cGMP, mean ± SD (1000 μg, 5 D 00 H 00 M (trough)): 8.50 ± 2.13 nmol/L
- cGMP, mean ± SD (1000 μg, 6 D 00 H 00 M (trough)): 9.23 ± 2.12 nmol/L
- cGMP, mean ± SD (1000 μg, 7 D 00 H 00 M (trough)): 9.66 ± 2.30 nmol/L
- cGMP, mean ± SD (1000 μg, 7 D 02 H 00 M): 11.84 ± 2.18 nmol/L
- cGMP, mean ± SD (1000 μg, 7 D 04 H 00 M): 15.76 ± 2.29 nmol/L
- cGMP, mean ± SD (1000 μg, 7 D 06 H 00 M): 16.70 ± 2.96 nmol/L
- cGMP, mean ± SD (1000 μg, 7 D 08 H 00 M): 15.91 ± 3.86 nmol/L
- cGMP, mean ± SD (1000 μg, 7 D 12 H 00 M): 14.10 ± 4.55 nmol/L
- cGMP, mean ± SD (1000 μg, 7 D 15 H 00 M): 12.91 ± 3.72 nmol/L
- cGMP, mean ± SD (1000 μg, 8 D 00 H 00 M): 9.38 ± 3.11 nmol/L
- cGMP, mean ± SD (1000 μg, 8 D 12 H 00 M): 7.21 ± 2.24 nmol/L
- cGMP, mean ± SD (1000 μg, 9 D 00 H 00 M): 6.29 ± 1.86 nmol/L
- cGMP, mean ± SD (1000 μg, 9 D 12 H 00 M): 5.93 ± 1.39 nmol/L
- cGMP, mean ± SD (1000 μg, 10 D 00 H 00 M): 6.33 ± 2.30 nmol/L
- cGMP, mean ± SD (1000 μg, −0 D 09 H 00 M (baseline)): 4.18 ± 0.82 nmol/L
- cyclic guanosine monophosphate changes from baseline (1000 μg, −0 D 09 H 00 M (pretreatment day)): -0.84 ± 2.04 nmol/L
- cGMP, mean ± SD (1000 μg, −0 D 12 H 00 M (baseline)): 4.26 ± 0.99 nmol/L
- cyclic guanosine monophosphate changes from baseline (1000 μg, −0 D 12 H 00 M (pretreatment day)): -0.77 ± 1.72 nmol/L
- cGMP, mean ± SD (1000 μg, −0 D 16 H 00 M (baseline)): 4.59 ± 1.06 nmol/L
- cyclic guanosine monophosphate changes from baseline (1000 μg, −0 D 16 H 00 M (pretreatment day)): -0.43 ± 1.49 nmol/L
- cGMP, mean ± SD (1000 μg, −0 D 18 H 00 M (baseline)): 4.16 ± 0.92 nmol/L
- cyclic guanosine monophosphate changes from baseline (1000 μg, −0 D 18 H 00 M (pretreatment day)): -0.87 ± 1.44 nmol/L
- cGMP, mean ± SD (1000 μg, −0 D 20 H 00 M (baseline)): 4.78 ± 1.37 nmol/L
- cyclic guanosine monophosphate changes from baseline (1000 μg, −0 D 20 H 00 M (pretreatment day)): -0.24 ± 1.75 nmol/L
- cGMP, mean ± SD (1000 μg, −0 D 22 H 00 M (baseline)): 5.10 ± 1.46 nmol/L
- cyclic guanosine monophosphate changes from baseline (1000 μg, −0 D 22 H 00 M (pretreatment day)): 0.08 ± 1.41 nmol/L
- cGMP, mean ± SD (1000 μg, −1 D 02 H 00 M (baseline)): 5.02 ± 1.59 nmol/L
- time of cGMP peak after administration (2000 μg dose): 8 h
- cyclic guanosine monophosphate changes from baseline (2000 μg once daily inhaled, 0 D 02 H 00 M): 4.78 ± 1.35 nmol/L
- cyclic guanosine monophosphate changes from baseline (2000 μg once daily inhaled, 0 D 04 H 00 M): 9.18 ± 2.50 nmol/L
- cyclic guanosine monophosphate changes from baseline (2000 μg once daily inhaled, 0 D 06 H 00 M): 11.04 ± 3.21 nmol/L
- cyclic guanosine monophosphate changes from baseline (2000 μg once daily inhaled, 0 D 08 H 00 M): 11.69 ± 2.78 nmol/L
- cyclic guanosine monophosphate changes from baseline (2000 μg once daily inhaled, 0 D 12 H 00 M): 8.56 ± 2.19 nmol/L
- cyclic guanosine monophosphate changes from baseline (2000 μg once daily inhaled, 0 D 15 H 00 M): 7.54 ± 2.32 nmol/L
- cyclic guanosine monophosphate changes from baseline (2000 μg once daily inhaled, 1 D 00 H 00 M): 3.48 ± 0.90 nmol/L
- cyclic guanosine monophosphate changes from baseline (2000 μg once daily inhaled, 2 D 00 H 00 M): 1.57 ± 0.86 nmol/L
- cyclic guanosine monophosphate changes from baseline (2000 μg once daily inhaled, 3 D 00 H 00 M): 5.17 ± 1.51 nmol/L
- cyclic guanosine monophosphate changes from baseline (2000 μg once daily inhaled, 4 D 00 H 00 M): 9.33 ± 2.55 nmol/L
- cyclic guanosine monophosphate changes from baseline (2000 μg once daily inhaled, 5 D 00 H 00 M): 11.10 ± 3.49 nmol/L
- cyclic guanosine monophosphate changes from baseline (2000 μg once daily inhaled, 6 D 00 H 00 M): 11.71 ± 2.66 nmol/L
- cyclic guanosine monophosphate changes from baseline (2000 μg once daily inhaled, 7 D 00 H 00 M): 11.36 ± 3.37 nmol/L
- cyclic guanosine monophosphate changes from baseline (2000 μg once daily inhaled, 7 D 02 H 00 M): 17.33 ± 4.18 nmol/L
- cyclic guanosine monophosphate changes from baseline (2000 μg once daily inhaled, 7 D 04 H 00 M): 22.23 ± 4.75 nmol/L
- cyclic guanosine monophosphate changes from baseline (2000 μg once daily inhaled, 7 D 06 H 00 M): 27.39 ± 6.93 nmol/L
- cyclic guanosine monophosphate changes from baseline (2000 μg once daily inhaled, 7 D 08 H 00 M): 27.83 ± 7.77 nmol/L
- cyclic guanosine monophosphate changes from baseline (2000 μg once daily inhaled, 7 D 12 H 00 M): 23.33 ± 5.53 nmol/L
- cyclic guanosine monophosphate changes from baseline (2000 μg once daily inhaled, 7 D 15 H 00 M): 19.08 ± 4.95 nmol/L
- cyclic guanosine monophosphate changes from baseline (2000 μg once daily inhaled, 8 D 00 H 00 M): 11.17 ± 3.69 nmol/L
- cyclic guanosine monophosphate changes from baseline (2000 μg once daily inhaled, 8 D 12 H 00 M): 8.02 ± 2.45 nmol/L
- cyclic guanosine monophosphate changes from baseline (2000 μg once daily inhaled, 9 D 00 H 00 M): 5.64 ± 1.36 nmol/L
- cyclic guanosine monophosphate changes from baseline (2000 μg once daily inhaled, 9 D 12 H 00 M): 4.57 ± 2.15 nmol/L
- cyclic guanosine monophosphate changes from baseline (2000 μg once daily inhaled, 10 D 00 H 00 M): 3.26 ± 1.07 nmol/L
- cyclic guanosine monophosphate changes from baseline (2000 μg, 0 D 00 H 00 M): 0.68 ± 1.14 nmol/L
- cGMP, mean ± SD (2000 μg, 0 D 00 H 00 M (baseline)): 4.83 ± 2.52 nmol/L
- cGMP, mean ± SD (2000 μg, 0 D 02 H 00 M): 9.61 ± 3.65 nmol/L
- cGMP, mean ± SD (2000 μg, 0 D 04 H 00 M): 14.01 ± 4.51 nmol/L
- cGMP, mean ± SD (2000 μg, 0 D 06 H 00 M): 15.88 ± 5.09 nmol/L
- cGMP, mean ± SD (2000 μg, 0 D 08 H 00 M): 16.52 ± 4.24 nmol/L
- cGMP, mean ± SD (2000 μg, 0 D 12 H 00 M): 13.39 ± 4.01 nmol/L
- cGMP, mean ± SD (2000 μg, 0 D 15 H 00 M): 12.38 ± 4.17 nmol/L
- cGMP, mean ± SD (2000 μg, 1 D 00 H 00 M): 8.31 ± 2.88 nmol/L
- cGMP, mean ± SD (2000 μg, 2 D 00 H 00 M): 6.40 ± 2.09 nmol/L
- cGMP, mean ± SD (2000 μg, 3 D 00 H 00 M (trough)): 10.00 ± 3.51 nmol/L
- cGMP, mean ± SD (2000 μg, 4 D 00 H 00 M (trough)): 14.17 ± 4.36 nmol/L
- cGMP, mean ± SD (2000 μg, 5 D 00 H 00 M (trough)): 15.93 ± 5.52 nmol/L
- cGMP, mean ± SD (2000 μg, 6 D 00 H 00 M (trough)): 16.54 ± 4.60 nmol/L
- cGMP, mean ± SD (2000 μg, 7 D 00 H 00 M (trough)): 16.19 ± 5.02 nmol/L
- cGMP, mean ± SD (2000 μg, 7 D 02 H 00 M): 22.17 ± 6.07 nmol/L
- cGMP, mean ± SD (2000 μg, 7 D 04 H 00 M): 27.07 ± 7.01 nmol/L
- cGMP, mean ± SD (2000 μg, 7 D 06 H 00 M): 32.22 ± 8.83 nmol/L
- cGMP, mean ± SD (2000 μg, 7 D 08 H 00 M): 32.67 ± 9.48 nmol/L
- cGMP, mean ± SD (2000 μg, 7 D 12 H 00 M): 28.17 ± 7.50 nmol/L
- cGMP, mean ± SD (2000 μg, 7 D 15 H 00 M): 23.91 ± 6.59 nmol/L
- cGMP, mean ± SD (2000 μg, 8 D 00 H 00 M): 16.00 ± 5.77 nmol/L
- cGMP, mean ± SD (2000 μg, 8 D 12 H 00 M): 12.86 ± 3.96 nmol/L
- cGMP, mean ± SD (2000 μg, 9 D 00 H 00 M): 10.48 ± 3.49 nmol/L
- cGMP, mean ± SD (2000 μg, 9 D 12 H 00 M): 9.40 ± 3.10 nmol/L
- cGMP, mean ± SD (2000 μg, 10 D 00 H 00 M): 8.09 ± 2.81 nmol/L
- cGMP, mean ± SD (2000 μg, −0 D 09 H 00 M (baseline)): 3.98 ± 1.91 nmol/L
- cyclic guanosine monophosphate changes from baseline (2000 μg, −0 D 09 H 00 M (pretreatment day)): -0.18 ± 0.90 nmol/L
- cGMP, mean ± SD (2000 μg, −0 D 12 H 00 M (baseline)): 4.43 ± 2.24 nmol/L
- cyclic guanosine monophosphate changes from baseline (2000 μg, −0 D 12 H 00 M (pretreatment day)): 0.28 ± 0.97 nmol/L
- cGMP, mean ± SD (2000 μg, −0 D 16 H 00 M (baseline)): 4.44 ± 2.15 nmol/L
- cyclic guanosine monophosphate changes from baseline (2000 μg, −0 D 16 H 00 M (pretreatment day)): 0.29 ± 1.17 nmol/L
- cGMP, mean ± SD (2000 μg, −0 D 18 H 00 M (baseline)): 4.32 ± 1.33 nmol/L
- cyclic guanosine monophosphate changes from baseline (2000 μg, −0 D 18 H 00 M (pretreatment day)): 0.17 ± 0.78 nmol/L
- cGMP, mean ± SD (2000 μg, −0 D 20 H 00 M (baseline)): 4.63 ± 1.86 nmol/L
- cyclic guanosine monophosphate changes from baseline (2000 μg, −0 D 20 H 00 M (pretreatment day)): 0.48 ± 0.71 nmol/L
- cGMP, mean ± SD (2000 μg, −0 D 22 H 00 M (baseline)): 4.81 ± 2.22 nmol/L
- cyclic guanosine monophosphate changes from baseline (2000 μg, −0 D 22 H 00 M (pretreatment day)): 0.66 ± 0.79 nmol/L
- cGMP, mean ± SD (2000 μg, −1 D 02 H 00 M (baseline)): 4.16 ± 1.70 nmol/L
- start of cGMP increase after first inhalation (480, 1000, 2000 μg): approximately 2 h
- time of cGMP peak after administration (480 and 1000 μg dose): 6 h
- mean peak cGMP (480 μg): 11.96 ± 2.80 nmol/L
- mean peak cGMP (1000 μg): 16.70 ± 2.96 nmol/L
- mean peak cGMP (2000 μg): 32.67 ± 9.48 nmol/L
- peak mean±SD cGMP (480 μg): 8.84 ± 1.35 nmol/L
- peak mean±SD cGMP (1000 μg): 11.69 ± 1.86 nmol/L
- peak mean±SD cGMP (2000 μg): 16.52 ± 4.24 nmol/L
